# Laboratory results published in PubChem BioAssay AID1963437 (Molecular Pharmacology Branch, DTP, NCI, 2024).
# System: OVCAR-8 complex spheroid, growth inhibition
# Assay: Anticancer human tumor OVCAR-8 cell line growth inhibition [Asc];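 note: spheroids exposed to agents for 7 days before readout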;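 for viability, T/C: percent viability relative to DMSO vehicle wells taken as 100%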
# Details: for IC50: curve of first compound; for viability, T/C: stronger effect = lower value
# Protocol: Multicellular complex tumor spheroid response to apoptosis pathway targeting inhibitors Alrizomadlin, Pelcitoclax, and Dasminapant in combination with a variety of drugs and investigational agents in selected tumor cell lines
# The MDM2 inhibitor alrizomadlin, the Bcl-2/Bcl-xL inhibitor pelcitoclax, and the IAPs inhibitor dasminapant were evaluated both individually and in combination with standard of care and investigational anticancer small molecules within a complex spheroid model of solid tumors. . Complex spheroids include a stromal component modeled by human endothelial cells (HUVEC) and fibroblasts modeled by human mesenchymal stem cells (MSCs). The concentration ranges selected for each drug and investigational agent were based upon clinically achievable concentrations if the clinical Cmax of the agent was known.
# Compounds. The drugs and investigational agents: alrizomadlin (APG-115; NSC831270), pelcitoclax (APG-1252; NSC835773), dasminapant (APG-1387;NSC834197), TAK-243 (NSC785004), copanlisib (NSC809693), olaparib (NSC753686), talazoparib (NSC767125), cobimetinib (NSC 768068), eltanexor (KPT-8602, NSC 794443), abemaciclib (NSC 768073), sotorasib (NSC818433), adagrasib (NSC 831453), MRTX-1133 (NSC 836407), Iadademestat (ORY1001, NSC 806812), and RMC-4630 (NSC839698), were obtained from the NCI Developmental Therapeutics Program Chemical Repository. The FDA-approved anticancer drug set is available from the Developmental Therapeutics Program at https://dtp.cancer.gov/organization/dscb/obtaining/available plates.htm. […] The stock solutions were prepared in dimethyl sulfoxide (DMSO, Sigma-Aldrich, St. Louis, MO, cat. D2650) at 800-fold the tested concentration and stored at -70 degrees C prior to their use. All drugs and investigational agents were tested over a range starting from a high concentration at or near the clinical Cmax and decreasing in half-log increments. If the clinical Cmax for an agent had not been determined, the highest concentration tested was 10 microM.
# The patient-derived cancer (PDC) cell lines include five colon adenocarcinomas: 186277-243-T-J2-PDC, 616215-338-R-J1-PDC, 439559-082-T-J2-PDC, 463943-066-T-J2-PDC, and 519858-162-T-J1-PDC; three pancreatic carcinomas: 323965-272-R-J2-PDC, 521955-158-R6-J3-PDC, and 521955-158-R2-J5-PDC; two uterine sarcomas: 327498-152-R-J2-PDC and 993429-296-R-J1-PDC; two rhabdomyosarcomas: 755483-174-R-J1-PDC and 772245-204-R-J1-PDC; two soft tissue sarcomas: 126254-015-R-J1-PDC and 494315-158-R-J1-PDC; two malignant fibrous histiocytomas: 317291-083-R-J1-PDC and 596521-263-R-J1-PDC; two breast carcinomas: 171881-019-R-J1-PDC and 885512-296-R-J2-PDC; and one ovarian carcinoma: 6556581-035-R-J-PDC were obtained from the NCI PDMR, (https://pdmr.cancer.gov). The established cell lines HSSY-2 synovial sarcoma (RRID:CVCL 8719), SYO-1 synovial sarcoma (RRID:CVCL_7146), MPNST malignant peripheral neural sheath tumor were obtained from the Sloan Kettering Institute. The following established cell lines were purchased from the American Type Culture Collection (ATCC, Manassas, VA), Sor the received from the NCI repository:, PANC-1 pancreatic carcinoma (CRL-1469, RRID:CVCL_0480), OVCAR-5 ovarian carcinoma (RRID:CVCL_1628), OVCAR-8 ovarian carcinoma (RRID:CVCL_1629), , MCF-7 breast carcinoma (CRL-12584, RRID:CVCL_0031), MDA-MB-231 breast carcinoma (CRL-12532, RRID:CVCL_0062), NCI-H1876 small cell lung carcinoma (CRL-5902, RRID:CVCL_1503), NCI-H510A small cell lung carcinoma (HTB-184, RRID:CVCL_1565), NCI-H1417 (CRL-5869, RRID:CVCL_1469), and NCI-H196 small cell lung carcinoma (CRL-5823, RRID:CVCL_1509). Dr. Peter Houghton (Greehey Children's Cancer Research Institute, University of Texas Health Science Center, San Antonio, TX) provided Rh-18 rhabdomyosarcoma (RRID:CVCL_1659). Pooled donor human umbilical vein endothelial cells (HUVEC, Lonza, cat. CC-2519) and human mesenchymal stem cells (hMSC, Lonza, cat. PT-2501) were purchased from Lonza (Walkersville, MD).
# Cell Culture. […]
# [1] = second compound 0.00949 µM, first compound 0.00316 µM
# [2] = second compound 0.00949 µM, first compound 0.01 µM
# [3] = second compound 0.00949 µM, first compound 0.0316 µM
# [4] = second compound 0.00949 µM, first compound 0.1 µM
# [5] = second compound 0.03 µM, first compound 0.00316 µM
# [6] = second compound 0.03 µM, first compound 0.01 µM
# [7] = second compound 0.03 µM, first compound 0.0316 µM
# [8] = second compound 0.03 µM, first compound 0.1 µM
# [9] = second compound 0.0949 µM, first compound 0.00316 µM
# [10] = second compound 0.0949 µM, first compound 0.01 µM
# [11] = second compound 0.0949 µM, first compound 0.0316 µM
# [12] = second compound 0.0949 µM, first compound 0.1 µM
# [13] = second compound 0.3 µM, first compound 0.00316 µM
# [14] = second compound 0.3 µM, first compound 0.01 µM
# [15] = second compound 0.3 µM, first compound 0.0316 µM
# [16] = second compound 0.3 µM, first compound 0.1 µM
# [17] = second compound 0.949 µM, first compound 0.00316 µM
# [18] = second compound 0.949 µM, first compound 0.01 µM
# [19] = second compound 0.949 µM, first compound 0.0316 µM
# [20] = second compound 0.949 µM, first compound 0.1 µM
# [21] = second compound 3 µM, first compound 0.00316 µM
# [22] = second compound 3 µM, first compound 0.01 µM
# [23] = second compound 3 µM, first compound 0.0316 µM
# [24] = second compound 3 µM, first compound 0.1 µM
smiles,measurement,setting,value
Cn1ncnc1[C@H]1c2n[nH]c(=O)c3cc(F)cc(c23)N[C@@H]1c1ccc(F)cc1 + CCN1C(C(=O)NC23CCC(C(=O)O)(CC2)CC3)C(c2cccc(Cl)c2F)C2(C(=O)Nc3cc(Cl)ccc32)C12CCCCC2,IC50,second compound 0.00949 µM,> 100 nM
same,IC50,second compound 0.03 µM,> 100 nM
same,IC50,second compound 0.0949 µM,> 100 nM
same,IC50,second compound 0.3 µM,> 100 nM
same,IC50,second compound 0.949 µM,> 100 nM
same,IC50,second compound 3 µM,> 100 nM
same,"viability, T/C","second compound 0.00949 µM, first compound 0.000316 µM",90.7%
same,"viability, T/C","second compound 0.00949 µM, first compound 0.001 µM",82.6%
same,"viability, T/C",[1],105%
same,"viability, T/C",[2],111%
same,"viability, T/C",[3],105%
same,"viability, T/C",[4],128%
same,"viability, T/C","second compound 0.03 µM, first compound 0.000316 µM",96%
same,"viability, T/C","second compound 0.03 µM, first compound 0.001 µM",94.3%
same,"viability, T/C",[5],104%
same,"viability, T/C",[6],109%
same,"viability, T/C",[7],107%
same,"viability, T/C",[8],126%
same,"viability, T/C","second compound 0.0949 µM, first compound 0.000316 µM",89.8%
same,"viability, T/C","second compound 0.0949 µM, first compound 0.001 µM",93.7%
same,"viability, T/C",[9],110%
same,"viability, T/C",[10],95.5%
same,"viability, T/C",[11],127%
same,"viability, T/C",[12],101%
same,"viability, T/C","second compound 0.3 µM, first compound 0.000316 µM",87.8%
same,"viability, T/C","second compound 0.3 µM, first compound 0.001 µM",110%
same,"viability, T/C",[13],97.7%
same,"viability, T/C",[14],97%
same,"viability, T/C",[15],106%
same,"viability, T/C",[16],123%
same,"viability, T/C","second compound 0.949 µM, first compound 0.000316 µM",111%
same,"viability, T/C","second compound 0.949 µM, first compound 0.001 µM",92%
same,"viability, T/C",[17],95.3%
same,"viability, T/C",[18],97.1%
same,"viability, T/C",[19],109%
same,"viability, T/C",[20],126%
same,"viability, T/C","second compound 3 µM, first compound 0.000316 µM",98.6%
same,"viability, T/C","second compound 3 µM, first compound 0.001 µM",94.3%
same,"viability, T/C",[21],104%
same,"viability, T/C",[22],117%
same,"viability, T/C",[23],115%
same,"viability, T/C",[24],139%
O=C(c1ccc(F)c(F)c1Nc1ccc(I)cc1F)N1CC(O)([C@@H]2CCCCN2)C1 + CCN1C(C(=O)NC23CCC(C(=O)O)(CC2)CC3)C(c2cccc(Cl)c2F)C2(C(=O)Nc3cc(Cl)ccc32)C12CCCCC2,IC50,second compound 0.00949 µM,> 1000 nM
same,IC50,second compound 0.03 µM,> 1000 nM
same,IC50,second compound 0.0949 µM,> 1000 nM
same,IC50,second compound 0.3 µM,> 1000 nM
same,IC50,second compound 0.949 µM,> 1000 nM
same,IC50,second compound 3 µM,> 1000 nM
same,"viability, T/C",[1],102%
same,"viability, T/C",[2],102%
same,"viability, T/C",[3],119%
same,"viability, T/C",[4],153%
same,"viability, T/C","second compound 0.00949 µM, first compound 0.316 µM",230%
same,"viability, T/C","second compound 0.00949 µM, first compound 1 µM",104%
same,"viability, T/C",[5],106%
same,"viability, T/C",[6],108%
same,"viability, T/C",[7],138%
same,"viability, T/C",[8],161%
same,"viability, T/C","second compound 0.03 µM, first compound 0.316 µM",241%
same,"viability, T/C","second compound 0.03 µM, first compound 1 µM",101%
same,"viability, T/C",[9],101%
same,"viability, T/C",[10],97%
same,"viability, T/C",[11],122%
same,"viability, T/C",[12],168%
same,"viability, T/C","second compound 0.0949 µM, first compound 0.316 µM",208%
same,"viability, T/C","second compound 0.0949 µM, first compound 1 µM",113%
same,"viability, T/C",[13],105%
same,"viability, T/C",[14],103%
same,"viability, T/C",[15],159%
same,"viability, T/C",[16],173%
same,"viability, T/C","second compound 0.3 µM, first compound 0.316 µM",238%
same,"viability, T/C","second compound 0.3 µM, first compound 1 µM",137%
same,"viability, T/C",[17],97.2%
same,"viability, T/C",[18],102%
same,"viability, T/C",[19],163%
same,"viability, T/C",[20],175%
same,"viability, T/C","second compound 0.949 µM, first compound 0.316 µM",248%
same,"viability, T/C","second compound 0.949 µM, first compound 1 µM",139%
same,"viability, T/C",[21],151%
same,"viability, T/C",[22],141%
same,"viability, T/C",[23],183%
same,"viability, T/C",[24],217%
same,"viability, T/C","second compound 3 µM, first compound 0.316 µM",260%
same,"viability, T/C","second compound 3 µM, first compound 1 µM",161%
